Assay [1] has as its system microorganisms. In words: Morphology, biofilm and growth disrupting peptides (Table 5). The assay is classed as cell-based. Also noted: key: A: Peptide aggregates; B: Less hyphal formation; Clumps; Diffuse clumps and small polyps; F: Diffuse growth; H: Thin; I: Growth inhibition; Microcolony formation; Rippled; Small polyps; Thick; W: Halo formation on top, microlonies on bottom. An excerpt:
In certain embodiments peptides that induce alterations in phenotype or other biological activities can also be used as antimicrobial effector moieties.

In assay [2] the test system is microorganisms. In words: Peptide activities: targeting/binding, antimicrobial, growth or phenotype altering (Tables 7, 8). The following applies: peptides having multiple activities. It counts as cell-based. Also noted: key: B: targeting/binding activity;; M: antimicrobial activity;; G: Growth or phenotype altering.

Ends that are not written are not given here.

Take “PF-418: peptide having multiple activities (chain 1 FFLVHFYIRKRKGKVSIFLNYF; chain 2 FFLVHFYIRKRKGKVSIFLNYF; Peptide with targeting and/or antimicrobial activity)”: the “Organism, effect: C. jejuni” value with microorganisms [1] (C. jejuni) was “C. jejuni (D)”. The “Organism, effect: E. coli” value in the assay with microorganisms [1] (E. coli) is listed as “E. coli (C)”. The “Organism, effect: E. faecalis” value in the assay on microorganisms [1] (E. faecalis) is “E. faecalis (D)”. For the same substance, the “Organism, effect: MRSA” value in the assay with microorganisms [1] (MRSA) is “MRSA (D)”. Moreover, the “Organism, effect: S. epidermidis” value in the assay with microorganisms [1] (S. epidermidis) is given as “S. epidermidis (M)”. Also, the “Organism, effect: S. pneumoniae” value with microorganisms [1] (S. pneumoniae) was “S. pneumoniae (D)”. Moreover, the Activities entry with microorganisms [2] is listed as “G B”.

Turning to “PF-431: peptide having multiple activities (chain 1 VAYAAICWW; chain 2 VAYAAICWW; Peptide with targeting and/or antimicrobial activity)”, the “Organism, effect” value is “C. jejuni (R)” in the assay on microorganisms [1] (C. jejuni); “E. faecalis (R)” in the assay with microorganisms [1] (E. faecalis); “MRSA (C)” with microorganisms [1] (MRSA); “S. epidermidis (M)” in the assay on microorganisms [1] (S. epidermidis); “S. pneumoniae (R)” with microorganisms [1] (S. pneumoniae). Further, in the assay with microorganisms [2], the Activities entry is on record as “G B”.

Consider “PF-432: peptide having multiple activities (chain 1 FNGDSEFFLCIAF; chain 2 FNGDSEFFLCIAF; Peptide with targeting and/or antimicrobial activity)”, for which the “Organism, effect” value is on record as “C. jejuni (D)” in the assay with microorganisms [1] (C. jejuni); “E. coli (R)” with microorganisms [1] (E. coli); “E. faecalis (D)” with microorganisms [1] (E. faecalis); “MRSA (M)” with microorganisms [1] (MRSA); “P. aeruginosa (A)” in the assay with microorganisms [1] (P. aeruginosa); “S. epidermidis (M)” in the assay with microorganisms [1] (S. epidermidis). The “Organism, effect” value in the assay with microorganisms [1] (S. pneumoniae) is “S. pneumoniae (D)”. Further, the Activities result with microorganisms [2] was “G B”.

Turning to “PF-439: peptide having multiple activities (chain 1 RVLVLKKFHGIMDGNRNVAVFFVGQ; chain 2 RVLVLKKFHGIMDGNRNVAVFFVGQ; Peptide with targeting and/or antimicrobial activity)”, the “Organism, effect” value is reported as “E. coli (R)” in the assay on microorganisms [1] (E. coli); “E. faecalis (C)” in the assay with microorganisms [1] (E. faecalis); “MRSA (M)” in the assay on microorganisms [1] (MRSA); “S. epidermidis (C)” in the assay with microorganisms [1] (S. epidermidis); “S. pneumoniae (R)” in the assay on microorganisms [1] (S. pneumoniae). In addition, the Activities result in the assay with microorganisms [2] is given as “G B”.

With “PF-440: peptide having multiple activities (MFIISPDLFNIAVILYILFFIHDILLLILS; Peptide with targeting and/or antimicrobial activity)”, the “Organism, effect” value is listed as “E. coli (R)” in the assay on microorganisms [1] (E. coli); “E. faecalis (C)” in the assay on microorganisms [1] (E. faecalis); “MRSA (C)” in the assay on microorganisms [1] (MRSA); “S. epidermidis (C)” in the assay on microorganisms [1] (S. epidermidis); “S. pneumoniae (R)” with microorganisms [1] (S. pneumoniae). Moreover, the Activities result in the assay on microorganisms [2] is given as “G B”.

For the substance “PF-443: peptide having multiple activities (KLLYFFNYFENLQQVHLLVQL; Peptide with targeting and/or antimicrobial activity)”, the “Organism, effect” value with microorganisms [1] (E. coli) is on record as “E. coli (R)”; with microorganisms [1] (MRSA) it was “MRSA (C)”; with microorganisms [1] (S. pneumoniae) it was “S. pneumoniae (C)”. In addition, the Activities entry in the assay with microorganisms [2] is “G B”.

For the substance “PF-450: peptide having multiple activities (HRNLIILQRTIFI; Peptide with targeting and/or antimicrobial activity)”, the “Organism, effect” value with microorganisms [1] (E. faecalis) is listed as “E. faecalis (C)”; in the assay with microorganisms [1] (MRSA), “MRSA (C)”; in the assay on microorganisms [1] (S. pneumoniae), “S. pneumoniae (C)”. The Activities result in the assay with microorganisms [2] is “G B”.

“PF-451: peptide having multiple activities (MVNYIIGSYMLYREQNNNEALRKFDITLAM; Peptide with targeting and/or antimicrobial activity)”: the “Organism, effect” value in the assay with microorganisms [1] (E. coli) was “E. coli (R)”; in the assay on microorganisms [1] (E. faecalis) it was “E. faecalis (C)”; with microorganisms [1] (MRSA), “MRSA (C)”; in the assay with microorganisms [1] (S. epidermidis) it was “S. epidermidis (C)”; in the assay on microorganisms [1] (S. pneumoniae), “S. pneumoniae (C)”. In addition, the Activities entry with microorganisms [2] was “G B”.

As to “PF-454: peptide having multiple activities (MSVFVPVTNIFMFIMSPIFNVNLLHFKVYI; Peptide with targeting and/or antimicrobial activity)”, the “Organism, effect” value with microorganisms [1] (E. coli) is reported as “E. coli (R)”; in the assay on microorganisms [1] (E. faecalis), “E. faecalis (C)”; with microorganisms [1] (MRSA), “MRSA (C)”; with microorganisms [1] (P. aeruginosa), “P. aeruginosa (H)”; in the assay on microorganisms [1] (S. epidermidis), “S. epidermidis (C)”; in the assay with microorganisms [1] (S. pneumoniae), “S. pneumoniae (R)”. Besides, the Activities result with microorganisms [2] is recorded as “G B”.

In the case of “PF-458: peptide having multiple activities (ISLIIFIMLFVVALFKCITNYKHQS; Peptide with targeting and/or antimicrobial activity)”, the “Organism, effect” value with microorganisms [1] (MRSA) is given as “MRSA (M)”; in the assay with microorganisms [1] (P. aeruginosa), “P. aeruginosa (H)”; in the assay with microorganisms [1] (S. pneumoniae) it was “S. pneumoniae (M)”. In addition, the Activities result with microorganisms [2] was “G B”.

As to “PF-460: peptide having multiple activities (MEHVLPFQNTPPNIVIIYKDFTHLKSITFS; Peptide with targeting and/or antimicrobial activity)”, the “Organism, effect” value was “E. coli (H)” with microorganisms [1] (E. coli); “E. faecalis (C)” with microorganisms [1] (E. faecalis); “MRSA (C)” with microorganisms [1] (MRSA); “S. epidermidis (C)” with microorganisms [1] (S. epidermidis); “S. pneumoniae (R)” in the assay with microorganisms [1] (S. pneumoniae). For the same substance, the Activities entry in the assay on microorganisms [2] was “G B”.

For the substance “PF-465: peptide having multiple activities (KPVGKALEEIADGKIEPVVPKEYLG; Peptide with targeting and/or antimicrobial activity)”, the “Organism, effect” value in the assay with microorganisms [1] (S. pneumoniae) was “S. pneumoniae (H)”. Further, the Activities result in the assay with microorganisms [2] is listed as “G B”.

Regarding “PF-469: peptide having multiple activities (YKVNYNNIDNHFNTLRH; Peptide with targeting and/or antimicrobial activity)”, the “Organism, effect” value in the assay on microorganisms [1] (C. jejuni) was “C. jejuni (D)”; in the assay with microorganisms [1] (E. coli), “E. coli (C)”; in the assay on microorganisms [1] (E. faecalis) it was “E. faecalis (D)”; in the assay on microorganisms [1] (MRSA), “MRSA (D)”; with microorganisms [1] (S. epidermidis), “S. epidermidis (D)”; in the assay on microorganisms [1] (S. pneumoniae), “S. pneumoniae (D)”. Also, the Activities result in the assay with microorganisms [2] was “G B”.

With “PF-474: peptide having multiple activities (MHRNLVLVKMEPIPHIMIIANQIGIIIEKA; Peptide with targeting and/or antimicrobial activity)”, the “Organism, effect” value in the assay with microorganisms [1] (C. albicans) is reported as “C. albicans (B)”; in the assay on microorganisms [1] (C. jejuni) it was “C. jejuni (D)”; in the assay on microorganisms [1] (E. coli), “E. coli (C)”; with microorganisms [1] (E. faecalis) it was “E. faecalis (C)”; in the assay on microorganisms [1] (MRSA), “MRSA (D)”; in the assay on microorganisms [1] (P. aeruginosa), “P. aeruginosa (A)”. The “Organism, effect” value in the assay on microorganisms [1] (S. epidermidis) is listed as “S. epidermidis (C)”; in the assay with microorganisms [1] (S. pneumoniae), “S. pneumoniae (D)”. Further, the Activities entry with microorganisms [2] was “G B”.

For “PF-478: peptide having multiple activities (HLFILKSHLKPFPPFRYTYD; Peptide with targeting and/or antimicrobial activity)”, the “Organism, effect” value in the assay on microorganisms [1] (E. coli) was “E. coli (C)”; in the assay with microorganisms [1] (MRSA) it was “MRSA (H)”; in the assay on microorganisms [1] (S. epidermidis), “S. epidermidis (C)”; with microorganisms [1] (S. pneumoniae), “S. pneumoniae (C)”. In addition, in the assay with microorganisms [2], the Activities entry is recorded as “G B”.

Consider “PF-479: peptide having multiple activities (AYILKRREEKNK; Peptide with targeting and/or antimicrobial activity)”, for which the “Organism, effect” value in the assay on microorganisms [1] (S. pneumoniae) was “S. pneumoniae (C)”. In addition, in the assay on microorganisms [2], the Activities result is “G B”.

As to “PF-482: peptide having multiple activities (LVGYVRTSGTVRSYKIN; Peptide with targeting and/or antimicrobial activity)”, in the assay with microorganisms [1] (S. pneumoniae), the “Organism, effect” value is “S. pneumoniae (S)”. For the same substance, in the assay on microorganisms [2], the Activities entry was “G B”.

“PF-516: peptide having multiple activities (ASKQASKQASKQASKQ; Peptide with targeting and/or antimicrobial activity)”: the “Organism, effect” value in the assay on microorganisms [1] (S. pneumoniae) is on record as “S. pneumoniae (H)”. The Activities entry in the assay with microorganisms [2] is “G”.

In the case of “PF-526: peptide having multiple activities (VLLLFIFQPFQKQLL-NH2)”, the “Organism, effect” value was “C. albicans (C)” in the assay on microorganisms [1] (C. albicans); “E. coli (R)” in the assay on microorganisms [1] (E. coli); “MRSA (C)” in the assay on microorganisms [1] (MRSA); “S. epidermidis (C)” with microorganisms [1] (S. epidermidis); “S. pneumoniae (R)” in the assay on microorganisms [1] (S. pneumoniae). Moreover, in the assay on microorganisms [2], the Activities result is reported as “G B”.

For the substance “PF-537: peptide having multiple activities (LANDYYKKTKKSW; Peptide with targeting and/or antimicrobial activity)”, the “Organism, effect” value with microorganisms [1] (S. pneumoniae) is “S. pneumoniae (C)”. For the same substance, the Activities entry in the assay with microorganisms [2] is reported as “G B”.

“PF-539: peptide having multiple activities (SIILTKKKRRKIPLSIDSQIYKYTFKQ; Peptide with targeting and/or antimicrobial activity)”: the entries for the “Organism, effect” value in the assay on microorganisms [1] (MRSA) and in the assay on microorganisms [1] (S. pneumoniae) were “MRSA (H)” and “S. pneumoniae (A)”, respectively. Besides, in the assay on microorganisms [2], the Activities entry is on record as “G B”.

(Values after patent US20110039763A1, “TARGETED ANTIMICROBIAL MOIETIES” (C3 JIAN, INC., priority 2009, published 2011).)
